Measured values as given in ChEMBL document CHEMBL3739348, “Novel pyrrole derivatives as selective CHK1 inhibitors: design, regioselective synthesis and molecular modeling” (Medchemcomm, 2015).

Legend:
[1] = biological target: RAC-alpha serine/threonine-protein kinase (Homo sapiens) (UniProt P31749); assay: Inhibition of AKT1 (unknown origin) at 30 uM by microfluidic assay relative to control
[2] = biological target: Protein kinase C (PKC) (Homo sapiens) (UniProt O94806+P41743+P17252+P05129+Q05655+P05771+Q05513+Q02156+P24723+Q15139+Q04759); assay: Inhibition of PKC (unknown origin) at 30 uM by microfluidic assay relative to control
[3] = biological target: T1, Serine/threonine-protein kinase Chk1 (Homo sapiens) (UniProt O14757); assay: Inhibition of CHK1 (unknown origin) at 30 uM by microfluidic assay relative to control
T1 sequence (whole entry): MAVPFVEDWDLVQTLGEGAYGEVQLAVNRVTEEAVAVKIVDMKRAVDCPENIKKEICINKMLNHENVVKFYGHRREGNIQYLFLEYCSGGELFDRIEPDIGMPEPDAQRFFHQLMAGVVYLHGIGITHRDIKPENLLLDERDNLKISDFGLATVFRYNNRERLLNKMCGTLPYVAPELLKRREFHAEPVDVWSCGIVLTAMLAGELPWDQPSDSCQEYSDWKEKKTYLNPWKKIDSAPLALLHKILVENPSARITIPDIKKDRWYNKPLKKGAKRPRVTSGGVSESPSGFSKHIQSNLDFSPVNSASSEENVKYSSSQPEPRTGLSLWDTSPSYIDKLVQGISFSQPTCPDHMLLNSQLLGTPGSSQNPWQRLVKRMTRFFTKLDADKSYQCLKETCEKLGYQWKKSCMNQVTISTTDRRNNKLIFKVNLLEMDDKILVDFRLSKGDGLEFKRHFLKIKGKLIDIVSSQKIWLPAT

[4] = biological target: Mitogen-activated protein kinase 14 (Homo sapiens) (UniProt Q16539); assay: Inhibition of p38a (unknown origin) at 30 uM by microfluidic assay relative to control
[5] = biological target: Tyrosine-protein kinase ABL1 (Homo sapiens) (UniProt P00519); assay: Inhibition of ABL (unknown origin) at 30 uM by microfluidic assay relative to control
[6] = biological target: Hepatocyte growth factor receptor (Homo sapiens) (UniProt P08581); assay: Inhibition of MET (unknown origin) at 30 uM by microfluidic assay relative to control
[7] = biological target: Casein kinase I isoform delta (Homo sapiens) (UniProt P48730); assay: Inhibition of CK1d (unknown origin) at 30 uM by microfluidic assay relative to control
[8] = biological target: T2, Aurora kinase A (Homo sapiens) (UniProt O14965); assay: Inhibition of AurA (unknown origin) at 30 uM by microfluidic assay relative to control
T2 sequence (whole entry): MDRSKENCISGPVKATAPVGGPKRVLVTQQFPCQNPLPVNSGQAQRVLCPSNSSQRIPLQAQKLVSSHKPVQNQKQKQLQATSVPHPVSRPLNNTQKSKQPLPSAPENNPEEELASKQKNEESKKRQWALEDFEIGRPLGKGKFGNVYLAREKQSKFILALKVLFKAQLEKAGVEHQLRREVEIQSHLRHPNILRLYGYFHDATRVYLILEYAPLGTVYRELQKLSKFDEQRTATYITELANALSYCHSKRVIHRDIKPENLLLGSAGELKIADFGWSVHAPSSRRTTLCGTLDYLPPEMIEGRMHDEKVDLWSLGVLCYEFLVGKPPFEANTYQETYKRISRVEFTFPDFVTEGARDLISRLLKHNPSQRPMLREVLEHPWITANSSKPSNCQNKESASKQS

[9] = biological target: T3, Serine/threonine-protein kinase Chk1 (Homo sapiens, UniProt O14757); assay: Inhibition of CHK1 (unknown origin) by microfluidic assay relative to control
T3 sequence (O14757 whole entry): T1 sequence (whole entry)

[10] = biological target: Epidermal growth factor receptor (Homo sapiens, UniProt P00533); assay: Inhibition of EGFR (unknown origin) by microfluidic assay relative to control
[11] = species on record: Homo sapiens; assay: Selectivity index, ratio of IC50 for VEGFR-2 (unknown origin) to IC50 for CHK1 (unknown origin)
[12] = species on record: Homo sapiens; assay: Selectivity index, ratio of IC50 for EGFR (unknown origin) to IC50 for CHK1 (unknown origin)

Mitogen-activated protein kinase 14 (Homo sapiens), sequence (Q16539 whole entry): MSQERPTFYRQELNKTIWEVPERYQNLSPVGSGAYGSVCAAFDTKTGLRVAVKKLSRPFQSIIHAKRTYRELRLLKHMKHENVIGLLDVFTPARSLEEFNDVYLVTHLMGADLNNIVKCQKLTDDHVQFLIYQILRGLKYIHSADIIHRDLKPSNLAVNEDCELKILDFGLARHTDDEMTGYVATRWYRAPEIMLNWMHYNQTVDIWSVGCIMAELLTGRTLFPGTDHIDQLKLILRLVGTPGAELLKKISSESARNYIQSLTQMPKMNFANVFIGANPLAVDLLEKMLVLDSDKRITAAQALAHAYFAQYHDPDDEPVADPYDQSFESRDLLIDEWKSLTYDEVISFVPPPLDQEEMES
Tyrosine-protein kinase ABL1 (Homo sapiens), sequence (P00519 whole entry): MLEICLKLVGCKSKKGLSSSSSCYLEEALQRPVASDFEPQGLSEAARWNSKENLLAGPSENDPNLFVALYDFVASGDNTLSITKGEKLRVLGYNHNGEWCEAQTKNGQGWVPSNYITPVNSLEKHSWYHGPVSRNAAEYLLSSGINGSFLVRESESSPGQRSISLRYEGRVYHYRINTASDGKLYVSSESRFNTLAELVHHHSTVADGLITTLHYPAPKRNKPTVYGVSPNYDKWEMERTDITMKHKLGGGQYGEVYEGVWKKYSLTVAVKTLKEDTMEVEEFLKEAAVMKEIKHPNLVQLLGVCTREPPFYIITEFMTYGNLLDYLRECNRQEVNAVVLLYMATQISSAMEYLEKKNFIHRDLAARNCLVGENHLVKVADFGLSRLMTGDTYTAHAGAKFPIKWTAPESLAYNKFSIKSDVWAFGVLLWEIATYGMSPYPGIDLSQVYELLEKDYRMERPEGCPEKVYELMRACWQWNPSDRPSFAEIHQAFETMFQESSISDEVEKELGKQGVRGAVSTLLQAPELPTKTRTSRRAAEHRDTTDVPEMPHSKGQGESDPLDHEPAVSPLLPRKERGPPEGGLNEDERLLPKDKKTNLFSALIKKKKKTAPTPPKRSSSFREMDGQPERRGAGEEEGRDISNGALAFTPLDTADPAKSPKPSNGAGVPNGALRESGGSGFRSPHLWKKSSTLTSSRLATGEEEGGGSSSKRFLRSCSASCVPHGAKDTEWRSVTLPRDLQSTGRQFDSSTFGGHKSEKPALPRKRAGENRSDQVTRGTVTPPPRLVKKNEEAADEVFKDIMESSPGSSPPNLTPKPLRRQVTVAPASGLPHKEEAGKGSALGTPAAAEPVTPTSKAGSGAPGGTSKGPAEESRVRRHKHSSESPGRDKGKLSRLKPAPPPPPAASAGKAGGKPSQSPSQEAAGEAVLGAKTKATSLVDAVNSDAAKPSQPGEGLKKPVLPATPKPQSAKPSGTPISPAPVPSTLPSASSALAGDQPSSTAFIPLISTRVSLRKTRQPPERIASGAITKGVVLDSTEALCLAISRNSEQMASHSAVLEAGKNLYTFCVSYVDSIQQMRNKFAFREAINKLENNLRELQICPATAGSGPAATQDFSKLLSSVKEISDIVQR
Casein kinase I isoform delta (Homo sapiens), sequence (P48730 whole entry, looked up, canonical isoform): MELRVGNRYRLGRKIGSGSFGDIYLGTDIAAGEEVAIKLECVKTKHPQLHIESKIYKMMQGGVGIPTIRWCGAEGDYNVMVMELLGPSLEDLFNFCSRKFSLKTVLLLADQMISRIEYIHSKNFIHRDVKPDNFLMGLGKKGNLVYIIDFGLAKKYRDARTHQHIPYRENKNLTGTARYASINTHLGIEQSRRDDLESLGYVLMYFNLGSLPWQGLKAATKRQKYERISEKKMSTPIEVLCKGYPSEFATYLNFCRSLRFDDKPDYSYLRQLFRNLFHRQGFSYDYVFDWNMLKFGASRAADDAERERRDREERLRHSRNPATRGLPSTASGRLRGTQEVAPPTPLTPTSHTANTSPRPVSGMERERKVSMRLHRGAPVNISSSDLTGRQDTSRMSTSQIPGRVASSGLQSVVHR
Hepatocyte growth factor receptor (Homo sapiens), sequence (P08581 whole entry, canonical isoform): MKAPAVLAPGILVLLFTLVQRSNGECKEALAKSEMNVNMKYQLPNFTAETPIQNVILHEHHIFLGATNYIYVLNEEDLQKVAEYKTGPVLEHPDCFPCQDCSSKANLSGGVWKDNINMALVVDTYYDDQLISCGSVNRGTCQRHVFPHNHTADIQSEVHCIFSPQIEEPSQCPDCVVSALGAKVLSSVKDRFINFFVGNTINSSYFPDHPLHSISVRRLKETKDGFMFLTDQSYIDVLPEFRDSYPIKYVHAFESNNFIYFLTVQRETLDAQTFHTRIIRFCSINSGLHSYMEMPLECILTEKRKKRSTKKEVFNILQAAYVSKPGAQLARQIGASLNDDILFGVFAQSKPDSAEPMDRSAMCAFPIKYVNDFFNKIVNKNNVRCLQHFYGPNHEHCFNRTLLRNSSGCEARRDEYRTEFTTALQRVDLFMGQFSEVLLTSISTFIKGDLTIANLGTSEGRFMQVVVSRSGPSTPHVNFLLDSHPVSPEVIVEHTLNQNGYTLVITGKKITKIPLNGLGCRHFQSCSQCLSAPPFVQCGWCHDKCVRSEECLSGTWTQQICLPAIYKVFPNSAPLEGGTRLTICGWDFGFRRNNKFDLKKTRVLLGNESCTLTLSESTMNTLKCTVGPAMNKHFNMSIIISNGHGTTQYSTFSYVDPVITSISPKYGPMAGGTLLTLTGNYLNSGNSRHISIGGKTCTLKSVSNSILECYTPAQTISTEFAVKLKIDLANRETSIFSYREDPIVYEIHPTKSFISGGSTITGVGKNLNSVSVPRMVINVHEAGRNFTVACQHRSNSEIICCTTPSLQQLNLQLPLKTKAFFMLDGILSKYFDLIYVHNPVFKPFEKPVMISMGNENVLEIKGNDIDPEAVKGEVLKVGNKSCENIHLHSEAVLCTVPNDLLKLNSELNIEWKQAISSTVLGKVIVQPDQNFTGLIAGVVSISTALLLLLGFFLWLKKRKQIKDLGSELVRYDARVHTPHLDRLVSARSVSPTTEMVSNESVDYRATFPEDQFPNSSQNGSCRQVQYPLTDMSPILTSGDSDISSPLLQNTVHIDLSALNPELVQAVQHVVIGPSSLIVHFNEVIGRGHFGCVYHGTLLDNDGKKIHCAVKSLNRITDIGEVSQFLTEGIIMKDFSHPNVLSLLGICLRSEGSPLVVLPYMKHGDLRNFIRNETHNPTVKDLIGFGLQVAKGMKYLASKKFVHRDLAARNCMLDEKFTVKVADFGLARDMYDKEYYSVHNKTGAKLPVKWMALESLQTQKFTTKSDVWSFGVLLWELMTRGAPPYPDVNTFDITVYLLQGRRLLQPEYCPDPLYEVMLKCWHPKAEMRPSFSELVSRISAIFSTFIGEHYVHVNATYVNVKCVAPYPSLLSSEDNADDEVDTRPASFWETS
RAC-alpha serine/threonine-protein kinase (Homo sapiens), sequence (P31749 whole entry): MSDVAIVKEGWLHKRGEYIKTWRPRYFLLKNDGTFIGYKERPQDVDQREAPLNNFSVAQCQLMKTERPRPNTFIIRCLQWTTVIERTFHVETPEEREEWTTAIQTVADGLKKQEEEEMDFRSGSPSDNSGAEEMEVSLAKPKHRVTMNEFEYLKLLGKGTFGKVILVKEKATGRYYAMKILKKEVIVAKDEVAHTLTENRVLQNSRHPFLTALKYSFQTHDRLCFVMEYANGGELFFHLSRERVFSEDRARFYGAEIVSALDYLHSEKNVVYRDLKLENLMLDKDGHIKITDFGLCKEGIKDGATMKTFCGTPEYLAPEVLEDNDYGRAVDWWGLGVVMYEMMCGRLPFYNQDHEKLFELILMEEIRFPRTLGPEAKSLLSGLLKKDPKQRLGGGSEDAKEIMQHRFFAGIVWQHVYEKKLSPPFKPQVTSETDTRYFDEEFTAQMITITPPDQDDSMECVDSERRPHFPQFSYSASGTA
Epidermal growth factor receptor, sequence (P00533 whole entry): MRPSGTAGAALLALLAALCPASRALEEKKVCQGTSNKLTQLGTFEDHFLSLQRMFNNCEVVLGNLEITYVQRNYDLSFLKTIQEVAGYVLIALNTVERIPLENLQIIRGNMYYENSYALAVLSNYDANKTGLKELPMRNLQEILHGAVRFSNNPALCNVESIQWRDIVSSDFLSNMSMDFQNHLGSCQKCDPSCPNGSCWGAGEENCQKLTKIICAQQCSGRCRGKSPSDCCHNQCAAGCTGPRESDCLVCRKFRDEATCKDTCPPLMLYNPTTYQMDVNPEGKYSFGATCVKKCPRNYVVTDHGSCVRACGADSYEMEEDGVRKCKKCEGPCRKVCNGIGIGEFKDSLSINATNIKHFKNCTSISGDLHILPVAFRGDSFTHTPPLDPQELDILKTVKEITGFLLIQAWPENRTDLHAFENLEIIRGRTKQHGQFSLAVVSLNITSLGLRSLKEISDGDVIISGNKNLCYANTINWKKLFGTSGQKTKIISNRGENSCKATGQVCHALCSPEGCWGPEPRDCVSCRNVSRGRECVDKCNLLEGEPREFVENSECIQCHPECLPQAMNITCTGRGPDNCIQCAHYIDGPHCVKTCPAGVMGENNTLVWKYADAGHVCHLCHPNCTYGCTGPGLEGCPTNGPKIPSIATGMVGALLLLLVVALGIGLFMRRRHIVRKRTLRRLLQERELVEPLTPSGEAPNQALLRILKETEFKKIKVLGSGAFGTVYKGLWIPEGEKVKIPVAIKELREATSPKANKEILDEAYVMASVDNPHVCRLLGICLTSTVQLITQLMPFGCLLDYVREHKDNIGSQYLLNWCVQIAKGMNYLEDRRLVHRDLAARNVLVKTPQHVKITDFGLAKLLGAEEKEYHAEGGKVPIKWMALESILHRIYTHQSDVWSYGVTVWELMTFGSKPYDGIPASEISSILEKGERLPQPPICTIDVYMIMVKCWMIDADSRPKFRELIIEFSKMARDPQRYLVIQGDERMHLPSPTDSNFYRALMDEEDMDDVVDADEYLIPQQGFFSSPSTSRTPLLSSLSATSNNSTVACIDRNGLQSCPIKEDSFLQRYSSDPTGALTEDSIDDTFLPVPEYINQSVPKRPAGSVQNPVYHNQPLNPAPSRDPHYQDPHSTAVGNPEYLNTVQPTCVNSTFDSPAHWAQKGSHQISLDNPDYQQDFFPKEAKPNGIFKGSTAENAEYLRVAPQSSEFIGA

inhibition [1] | inhibition [2] | inhibition [3] | inhibition [4] | inhibition [5] | inhibition [6] | inhibition [7] | inhibition [8] | IC50 [9] | IC50 [10] | Ratio IC50 [11] | Ratio IC50 [12] | Structure (SMILES)
90% | 63% | 84% | 2% | 5% | 4% | 53% | 32% | 690 nM |  |  |  | Cc1[nH]c(-c2ccccc2)c(-c2ccccc2)c1-c1nnc(O)c2nn(-c3ccccc3)cc12
13% | 34% | 96% | 21% | 4% | 34% | 22% | 23% | 310 nM | 5100 nM | 14.7 | 16.4 | Cc1[nH]c(-c2ccccc2)c(-c2ccccc2)c1C(=O)c1coc2c1cc(O)c1ccccc12
45% | 44% | 80% | 13% | 32% | 3% | 43% | 2% | 800 nM |  |  |  | Cc1[nH]c(-c2ccccc2)c(-c2ccccc2)c1C(=O)c1cn(-c2ccccc2)nc1C(=O)Nc1ccccc1
